14 compounds from patent US7358249B2, “Heterocyclic compounds having inhibitory activity against HIV integrase” (Shionogi & Co., Ltd., priority 2002, dated 2008) can be followed below.

For one data set, the target named is HIV integrase (Human immunodeficiency virus type 1 group M subtype B, UniProt P04585). Kind of data set: integrase inhibition assay (microtiter plate, substrate DNA / target DNA). The class given is biochemical. To be noted: integrase 30 pmol, incubated at 30° C. for 1 hour, OD at 405 nm; concentration at percent inhibition 50%; read-out: MIA, IC50 (ug/ml) (converted). How it is done:
The inhibitory activities against integrase of the presnt compounds were determined by the assay described below.
(1) Preparation of DNA Solutions
Substrate DNA and target DNA synthesized by Amersham Pharmacia Biotech, which sequences were indicated below, were dissolved in KTE buffer (composition: 100 mM KCl, 1 mM EDTA, 10 mM Tris-HCl (pH 7.6)) at a concentration of 2 pmol/μl and 5 pmol/μl, respectively. The DNA solutions were heated and then slowly cooled so that they were annealed with each complement.
(Sequence of Substrate DNA)
(2) Calculations of the percent inhibitions (IC50 values of test compounds)
Streptavidin, obtained from Vector Laboratories, was dissolved in 0.1 M carbonate buffer (composition: 90 mM Na2CO3, 10 mM NaHCO3) at a concentration of 40 μg/ml. After coating each well of microtiter plates (obtained from NUNC) with 50 μl of the above solution at 4° C. over night, each well was washed twice with PBS (composition: […], 0.27 mM KCl, 0.43 mM Na2HPO4, 0.14 mM KH2PO4) and blocked with 300 μl of 1% skim milk in PBS for 30 min. Additionally, each well was washed twice with PBS and added with 50 μl of the substrate DNA solution (2 pmol/μl). The microtiter plates were kept at room temperature for 30 min. Then, each well was washed twice with PBS and once with H2O.
Subsequently, to the each well prepared above were added 45 μl of the reaction buffer prepared from 12 μl of the buffer (composition: 150 mM MOPS (pH 7.2), 75 mM MnCl2, 50 mM 2-mercaptoethanol, 25% glycerol, 500 μg/ml bovine serum albumin-fraction V), 1 μl of target DNA (5 pmol/μ), and 32 μl of the distilled water. Additionally, 6 μl of either a test compound in DMSO or DMSO for positive control (PC) was mixed with the above reaction buffer, then 9 μl of an integrase solution (30 pmol) was added thereto and the mixture was mixed well. To the well of negative control (NC) was added 9 μl of the integrase dilution buffer (composition: 20 mM MOPS (pH7.2), 400 mM potassium glutamate, 1 mM EDTA, 0.1% NP-40, 20% glycerol, 1 mM DTT, 4 M urea).
The microtiter plates were incubated at 30° C. for 1 hour. The reaction solution was removed and each well was washed twice with PBS. Subsequently, each well of the microtiter plates was filled with 100 μl of anti-digoxigenin antibody labeled with alkaline phosphatase (Sheep Fab fragment: obtained from Boehringer) and incubated at 30° C. for 1 hour. Then, each well was washed twice with 0.05% Tween20 in PBS and once with PBS. Next, 150 μl of the Alkaline phosphatase reaction buffer (composition: 10 mM p-Nitrophenylphosphate (obtained from Vector Laboratories), 5 mM MgCl2, 100 mM NaCl, 100 mM Tris-HCl (pH 9.5)) was added to each well. The microtiter plates were incubated at 30° C. for 2 hours and the reaction was terminated by the addition of 50 μl of 1 N NaOH solution. The optical density (OD) at 405 nm of each well was measured and the percent inhibition was determined by the following expression. The percent inhibition (%)=100[1−{(C abs.−NC abs.)/(PC abs.−NC abs.)}]
C abs.; the OD of the well of the test compound
NC abs.: the OD of the negative control (NC)
PC abs.: the OD of the positive control (PC)
When the percent inhibition (%) is X % at a concentration of x μg/ml and the percent inhibition (%) is Y % at a concentration of y μg/ml, one of which is more than 50% and the other is less than 50%, IC50 can be determined by the following expression. IC50 (μg/ml)=x−{(X−50)(x−y)/(X−Y)}
Compound No. in the Table 1 is the same as compound No. of the above Examples.

With `COC(=O)c1nc(C(=O)N2CCN(C)CC2)c2cc(Cc3ccc(F)cc3)cnc2c1O` [Compound A-54, 5-(4-Methylpiperadine-1-carbonyl)-3-(4-fluorobenzyl)-8-hydroxy[1,6]naphthylidine-7-carboxylic acid methyl ester], the melting point (as a rule, the temperature, or range, at which the solid turns liquid) is 226 to 227 °C. Further, on HIV integrase, the IC50 is 1300 nM.

`COC(=O)c1nc(NC(C)=O)c2cc(Cc3ccc(F)cc3)cnc2c1O` [Compound A-10, Methyl 5-acetylamino-3-(4-fluorobenzyl)-8-hydroxy-1,6-naphthylidine-7-carboxylate]: the melting point fell in the range of 263 to 267 °C. On HIV integrase, the IC50 was 379 nM.

`COC(=O)c1cc(C(=O)NCCO)c2cc(Cc3ccc(F)cc3)cnc2c1O` [Compound I-5, 3-(4-Fluorobenzyl)-8-hydroxy-5-(2-hydroxyethylcarbamoyl)quinoline-7-carboxylic acid methylester] yielded a melting point of 207 to 208 °C. At HIV integrase, the IC50 is 502 nM.

The compound `COC(=O)c1nc(NS(=O)(=O)N(C)C)c2cc(Cc3ccc(F)cc3)cnc2c1O` [Compound A-26, Methyl 5-[(dimethylamino)sulfonyl]-amino-3-(4-fluorobenzyl)-8-hydroxy-1,6-naphthylidine-7-carboxylate] displayed a melting point of 159 to 160 °C. Moreover, at HIV integrase, the IC50 was 345 nM.

Turning to `COC(=O)c1cc(NC(C)C)c2cc(Cc3ccc(F)cc3)cnc2c1O` [Compound I-14, 3-(4-Fluorobenzyl)-8-hydroxy-5-isopropylaminoquinoline-7-carboxylic acid methylester], the melting point was in the range of 121 to 122 °C. For the same compound, on HIV integrase, the IC50 is 1190 nM.

On to `COCC(C)OC(=O)c1ncc2cc(Cc3ccc(F)cc3)cnc2c1O` (stereo not shown) [Compound A-79, 3-(4-Fluorobenzyl)-8-hydroxy[1,6]naphthylidine-7-carboxylic acid [2-(1-methoxy)propyl]ester], for which the melting point lay within 130 to 131 °C. Also, the IC50 on HIV integrase was 351 nM.

In turn, `COC(=O)c1nc(C(=O)OC)c2cc(Cc3ccc(F)cc3)cnc2c1O` [Compound A-15, Dimethyl 3-(4-fluorobenzyl)-8-hydroxy-1,6-naphthylidine-5,7-dicarboxylate] displayed a melting point of 191 to 194 °C. Moreover, the IC50 at HIV integrase is 783 nM.

As to `COC(=O)c1nc(NS(C)(=O)=O)c2cc(Cc3ccc(F)cc3)cnc2c1O` [Compound A-9, Methyl 3-(4-fluorobenzyl)-8-hydroxy-5-methanesulfonylamino-1,6-naphthylidine-7-carboxylate], the melting point was 205 to 210 °C. Moreover, the IC50 on HIV integrase was 222 nM.

`COC(=O)c1cc(CO)c2cc(Cc3ccc(F)cc3)cnc2c1O` [Compound I-117, 3-(4-Fluorobenzyl)-8-hydroxy-5-hydroxymethylquinoline-7-carboxylic acid methyl ester] had a melting point of 142 to 143 °C. In addition, the IC50 on HIV integrase was 208 nM.

Compound `COCCC(=O)Nc1cc(C(=O)OC)c(O)c2ncc(Cc3ccc(F)cc3)cc12` [Compound I-182, 3-(4-Fluorobenzyl)-8-hydroxy-5-(3-methoxy-propionylamino)-quinoline-7-carboxylic acid methyl ester] came in with a melting point of 190 to 192 °C. For the same compound, the IC50 at HIV integrase was 461 nM.

For `COC(=O)c1cc(C(=O)NCC(=O)N(C)C)c2cc(Cc3ccc(F)cc3)cnc2c1O` [Compound I-64, 5-(Dimethylcarbamoylmethylcarbamoyl)-3-(4-fluorobenzyl)-8-hydroxyquinoline-7-carboxylic acid methyl ester], the melting point lay in the range of 198 to 199 °C. Besides, at HIV integrase, the IC50 is 979 nM.

Turning to `COC(=O)c1cc(N(C)C)c2cc(Cc3ccc(F)cc3)cnc2c1O` [Compound I-16, 5-Dimethylamino-3-(4-fluorobenzyl)-8-hydroxyquinoline-7-carboxylic acid methylester], the melting point lay within 62 to 63 °C. Besides, the IC50 on HIV integrase is 451 nM.

In turn, `NC(=O)c1cc(C(=O)O)c(O)c2ncc(Cc3ccc(F)cc3)cc12` [Compound I-7, 5-Carbamoyl-3-(4-fluorobenzyl)-8-hydroxyquinoline-7-carboxylic acid] gave a melting point of 265 to 266 °C. Further, the IC50 at HIV integrase is 705 nM.

Consider `COC(=O)c1cc(C(=O)N2CCN(C)CC2)c2cc(Cc3ccc(F)cc3)cnc2c1O` [Compound I-48, 3-(4-Fluorobenzyl)-8-hydroxy-5-(4-methyl-piperadine-1-carbonyl)quinoline-7-carboxylic acid methyl ester], for which the melting point was in the range of 184 to 185 °C. Besides, the IC50 on HIV integrase was 800 nM.
